# Measurements as given in US20230129258A1, “HETEROTANDEM BICYCLIC PEPTIDE COMPLEXES” (BicycleTx Limited, priority 2019, published 2023).
# “Also recorded” adds a separate entry of the source. Starred links: 1 amine or outer side, 2 acyl side, 3 side chain; linkers in the order of their positions; H or OH if unused. Positions of bridges follow the written chain, without caps; N, C: chain ends. Non-standard residues stand in square brackets, D forms with d. Chains are numbered I, II in the order given. X1 = O=C(CCOCCOCCOCCN(CCOCCOCCOCCn1cc(CCC(=O)[*:2])nn1)CCOCCOCCOCCn1cc(CCC(=O)[*:3])nn1)[*:1]; TATA = O=C(CC[*:1])N1CN(C(=O)CC[*:2])CN(C(=O)CC[*:3])C1; d1Nal = N[C@H](Cc1cccc2ccccc12)C(=O)O; Hyp = O=C(O)[C@@H]1C[C@@H](O)CN1; hArg = N=C(N)NCCCC[C@H](N)C(=O)O; tBuAla = CC(C)(C)C[C@H](N)C(=O)O; Nle = CCCC[C@H](N)C(=O)O
# Columns and labels:
# [1] = Pharmacokinetics in SD rats; assay type: in vivo; details: for half-life: iv
# Outline: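 Male SD rats received the heterotandem Bicycle complex IV bolus or 15-min IV infusion in 25 mM histidine HCl, 10% sucrose pH 7. Serial K2-EDTA plasma analysed by LC-MS/MS (Orbitrap, positive mode); parameters from non-compartmental analysis.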
# [2] = Pharmacokinetics in CD1 mice; assay type: in vivo, CD-1 mice
# Description: Serial bleeding (about 80 μL blood/time point) was performed via submandibular or saphenous vein at each time point. All blood samples were immediately transferred into prechilled microcentrifuge tubes containing 2 μL K2-EDTA (0.5M) as anti-coagulant and placed on wet ice. Blood samples were immediately processed for plasma by centrifugation at approximately 4° C., 3000 g. The precipitant including internal standard was immediately added into the plasma, mixed well and centrifuged at 12,000 rpm, 4° C. for 10 minutes. The supernatant was transferred into pre-labeled polypropylene microcentrifuge tubes, and then quick-frozen over dry ice. The samples were stored at […] or below as needed until analysis. 7.5 μL of the supernatant samples were directly injected for LC-MS/MS analysis using an Orbitrap Q Exactive in positive ion mode to determine the concentrations of analyte. Plasma concentration versus time data were analyzed by non-compartmental approaches using the Phoenix WinNonlin 6.3 software program. C0, CI, Vdss, T½, AUC(0-last), AUC(0-inf), MRT(0-last), MRT(0-inf) and graphs of plasma concentration versus time profile were reported.
# CD137 = CD137 (Homo sapiens, UniProt Q07011); test: SPR (Biacore) binding to immobilized human CD137; parameters: purchased R&D systems; details: for off rate (koff) from immobilized CD137: avidity from two CD137 binding bicycles; for affinity to immobilized CD137 (human), in words: reported KD may be an overestimation
# CD137, sequence (Q07011 24-255): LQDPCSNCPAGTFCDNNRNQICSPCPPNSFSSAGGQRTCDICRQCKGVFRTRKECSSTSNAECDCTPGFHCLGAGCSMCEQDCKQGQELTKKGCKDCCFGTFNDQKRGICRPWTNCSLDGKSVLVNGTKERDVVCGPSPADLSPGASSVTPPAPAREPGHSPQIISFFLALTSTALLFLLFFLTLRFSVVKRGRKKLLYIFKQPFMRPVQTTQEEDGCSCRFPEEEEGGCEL
# Description: Biacore experiments were performed to determine ka (M^−1s^−1), kd (s^−1), KD (nM) values of heterotandem peptides binding to human CD137 protein. […] The protein was desalted to remove uncoupled biotin using spin columns into PBS.
# For analysis of peptide binding, a Biacore T200 or a Biacore 3000 instrument was used with a XanTec CMD500D chip. Streptavidin was immobilized on the chip using standard amine-coupling chemistry at 25° C. with HBS-N (10 mM HEPES, 0.15 M NaCl, pH 7.4) as the running buffer. Briefly, the carboxymethyl dextran surface was activated with a 7 min injection of a 1:1 ratio of 0.4 M 1-ethyl-3-(3-dimethylaminopropyl) carbodiimide hydrochloride (EDC)/0.1 M N-hydroxy succinimide (NHS) at a flow rate of 10 μl/min. For capture of streptavidin, the protein was diluted to 0.2 mg/ml in 10 mM sodium acetate (pH 4.5) and captured by injecting 120 μl of onto the activated chip surface. Residual activated groups were blocked with a 7 min injection of 1 M ethanolamine (pH 8.5) and biotinylated CD137 captured to a level of 270-1500 RU. Buffer was changed to PBS/0.05% Tween 20 and a dilution series of the peptides was prepared in this buffer with a final DMSO concentration of 0.5%. The top peptide concentration was 500 nM with 6 further 2-fold or 3-fold dilutions. The SPR analysis was run at 25° C. at a flow rate of 90 μl/min with 60 seconds association and 900 seconds dissociation. After each cycle a regeneration step (10 μl of 10 mM glycine pH 2) was employed. Data were corrected for DMSO excluded volume effects as needed. All data were double-referenced for blank injections and reference surface using standard processing procedures and data processing and kinetic fitting were performed using Scrubber software, version 2.0c (BioLogic Software). Data were fitted using simple 1:1 binding model allowing for mass transport effects where appropriate.
compound,measurement,setting,value
CCCC[C@@H]1NC(=O)[C@H](Cc2ccc(O)cc2)NC(=O)[C@@H]2CCCN2C(=O)[C@H](CC(=O)O)NC(=O)[C@H](C)NC(=O)[C@H](Cc2ccccc2)NC(=O)[C@@H]2CSCCC(=O)N3CN(CN(C3)C(=O)CCSC[C@@H](C(=O)N[C@@H](C)C(N)=O)NC1=O)C(=O)CCSC[C@H](NC(C)=O)C(=O)N[C@@H](CC(C)(C)C)C(=O)N1CCC[C@H]1C(=O)N[C@@H](CCC(=O)O)C(=O)N[C@H](CCCCNC(=O)CCc1cn(CCOCCOCCOCCN(CCOCCOCCOCCC(=O)N[C@H]3CSCCC(=O)N4CN5CN(C4)C(=O)CCSC[C@H](NC(=O)[C@@H](CC(=O)O)NC(=O)[C@H](Cc4cccc6ccccc46)NC(=O)[C@@H]4CCCN4C3=O)C(=O)N[C@@H](CCSC)C(=O)N[C@@H](CCCCNC(=N)N)C(=O)N[C@@H](CC(=O)O)C(=O)N[C@@H](Cc3c[nH]c4ccccc34)C(=O)N[C@@H](CO)C(=O)N[C@@H]([C@@H](C)O)C(=O)N3CCC[C@H]3C(=O)N3C[C@H](O)C[C@H]3C(=O)N[C@@H](Cc3c[nH]c4ccccc34)C(=O)N[C@H](C(N)=O)CSCCC5=O)CCOCCOCCOCCn3cc(CCC(=O)NCCCC[C@H]4NC(=O)[C@H](CCC(=O)O)NC(=O)[C@@H]5CCCN5C(=O)[C@H](CC(C)(C)C)NC(=O)[C@@H](NC(C)=O)CSCCC(=O)N5CN6CN(C5)C(=O)CCSC[C@H](NC(=O)[C@H](Cc5ccc(O)cc5)NC(=O)[C@@H]5CCCN5C4=O)C(=O)N[C@@H](Cc4ccccc4)C(=O)N[C@@H](C)C(=O)N[C@@H](CC(=O)O)C(=O)N4CCC[C@H]4C(=O)N[C@@H](Cc4ccc(O)cc4)C(=O)N[C@@H](CCCC)C(=O)N[C@H](C(=O)N[C@@H](C)C(N)=O)CSCCC6=O)nn3)nn1)C(=O)N1CCC[C@H]1C(=O)N[C@@H](Cc1ccc(O)cc1)C(=O)N2 [BCY11863],Clp,[1]; 100 mg/kg BCY11863 IV,13 mL/min/kg
same,Vdss,[1]; 100 mg/kg BCY11863 IV,2.3 L/kg
same,fraction metabolized to BCY15155,"[1]; IV administration of BCY11863, 100 mg/kg",< 1%
same,bioavailability from SC dosing,[1]; SC dosing,high
same,clearance (in words),[1]; Table 6B,low clearance molecule
same,volume of distribution (in words),[1]; Table 6B,volume of distribution larger than plasma volume
same,conversion to BCY14602,"[1]; first 24 h, IV BCY11863, 100 mg/kg",No significant conversion
same,half-life,"[1]; male, SD, rat, plasma, 2 mg/kg, 2 mg/kg IV, n=3, read-out: terminal half life (converted)",4.1 h
same,clearance,"[1]; male, SD, rat, plasma, 2 mg/kg IV, n=3, read-out: clearance",7.7 mL/min/kg
same,Vd,"[1]; male, SD, rat, plasma, 2 mg/kg IV, n=3, read-out: volume of distribution at steady state (Vdss)",1.6 L/kg
same,clearance,"[1]; male, rat, plasma, SD rats, 1.9 mg/kg IV Bolus, read-out: Clp",7.7 mL/min/kg
same,Vd,"[1]; male, rat, plasma, SD rats, 1.9 mg/kg IV Bolus, read-out: Vdss",1.6 L/kg
same,clearance,"[1]; male, rat, plasma, SD rats, 3.2 mg/kg IV Inf (15 min), read-out: Clp",9.3 mL/min/kg
same,Vd,"[1]; male, rat, plasma, SD rats, 3.2 mg/kg IV Inf (15 min), read-out: Vdss",1.3 L/kg
same,bioavailability,"[1]; male, rat, plasma, SD rats, 6.3 mg/kg SC",95%
same,bioavailability from IP dosing,[2]; IP dosing,high
same,clearance (in words),[2]; IV study,low clearance molecule
same,volume of distribution (in words),[2]; IV study,volume of distribution larger than plasma volume
same,half-life,"[2]; male, CD-1, mouse, plasma, 15 mg/kg, mice, after IP injection, read-out: circulating plasma half-life (converted)",2.5 h
same,clearance,"[2]; male, mouse, plasma, CD-1 mice, 0.96 mg/kg IV Bolus, read-out: Clp",21 mL/min/kg
same,half-life,"[2]; male, mouse, plasma, CD-1 mice, 0.96 mg/kg IV Bolus, read-out: T½ (converted)",1.7 h
same,Vd,"[2]; male, mouse, plasma, CD-1 mice, 0.96 mg/kg IV Bolus, read-out: Vdss",2.9 L/kg
same,clearance,"[2]; male, mouse, plasma, CD-1 mice, 5.6 mg/kg IV Bolus, read-out: Clp",9.7 mL/min/kg
same,half-life,"[2]; male, mouse, plasma, CD-1 mice, 5.6 mg/kg IV Bolus, read-out: T½ (converted)",2.6 h
same,Vd,"[2]; male, mouse, plasma, CD-1 mice, 5.6 mg/kg IV Bolus, read-out: Vdss",1.6 L/kg
same,clearance,"[2]; male, mouse, plasma, CD-1 mice, 12 mg/kg IV Bolus, read-out: Clp",17 mL/min/kg
same,half-life,"[2]; male, mouse, plasma, CD-1 mice, 12 mg/kg IV Bolus, read-out: T½ (converted)",2.6 h
same,Vd,"[2]; male, mouse, plasma, CD-1 mice, 12 mg/kg IV Bolus, read-out: Vdss",2.5 L/kg
same,bioavailability,"[2]; male, mouse, plasma, CD-1 mice, 15.5 mg/kg IP",100%
same,half-life,"[2]; male, mouse, plasma, CD-1 mice, 15.5 mg/kg IP, read-out: T½ (converted)",2.5 h
same,half-life,"[2]; male, mouse, plasma, CD-1 mice, 32 mg/kg IV Bolus, read-out: T½ (converted)",2.4 h
same,Vd,"[2]; male, mouse, plasma, CD-1 mice, 32 mg/kg IV Bolus, read-out: Vdss",2.1 L/kg
same,off rate (koff) from immobilized CD137,CD137,extremely slow; also recorded: very slow
same,"affinity to immobilized CD137 (human), in words",CD137,high affinity
"I: A[hArg]DC[Hyp]LVNPLCLEP[d1Nal]WTC-NH2 / II: Ac-C[tBuAla]PE[dK]PYCFADPY[Nle]CA-NH2 / III: Ac-C[tBuAla]PE[dK]PYCFADPY[Nle]CA-NH2 (linker I:4-I:11-I:18, II:1-II:8-II:15, III:1-III:8-III:15 via TATA; linker I:N-II:5-III:5 via X1) [BCY13272]",terminal half life,"[1]; 3.6 mg/kg IV infusion (15 min), n=3",2.9 h
same,half-life,"[1]; male, SD, rat, plasma, 3.6 mg/kg, 3.6 mg/kg IV infusion (15 min), n=3, read-out: terminal half life (converted)",2.5 h
same,half-life,"[1]; male, SD, rat, plasma, IV Inf (15 minutes), read-out: T1/2 (converted)",2.5 h
same,clearance,"[1]; male, SD, rat, plasma, 3.6 mg/kg IV infusion (15 min), n=3, read-out: clearance",7.5 mL/min/kg
same,Vd,"[1]; male, SD, rat, plasma, 3.6 mg/kg IV infusion (15 min), n=3, read-out: volume of distribution at steady state (Vdss)",1 L/kg
same,Vd,"[1]; male, SD, rat, plasma, IV Inf (15 minutes), read-out: Vdss",1 L/kg
same,clearance,"[2]; male, CD-1, mouse, plasma, 5.5 mg/kg IV, n=3, read-out: Clearance",7.5 mL/min/kg
same,half-life,"[2]; male, CD-1, mouse, plasma, 5.5 mg/kg IV, n=3, read-out: terminal plasma half life (converted)",2.9 h
same,Vd,"[2]; male, CD-1, mouse, plasma, 5.5 mg/kg IV, n=3, read-out: volume of distribution (Vdss)",1.1 L/kg
same,off rate (koff) from immobilized CD137,CD137,very slow
same,"affinity to immobilized CD137 (human), in words",CD137,high affinity
